Reference: patent publication US20250134878A1, “COMBINATION OF CHEK1 INHIBITOR AND TOP1 INHIBITOR FOR TREATING COLORECTAL CANCER” (Genome Research Limited, priority 2022, published 2025)
Several values for one entry are separate records, joined by “and”; a condition that tells them apart may be missing. Equal entries are not always repeated. Where two headings read alike, the source gives them in different places. Each block holds one compound with its values, some of them ahead of it.

Columns and labels:
[1] = system: colon (n=45) cancer cell lines; assay: anchored 2x7 combination screen, viability by CellTiter-Glo after 72 h, synergy over Bliss
Procedure: To screen efficiently, the inventors used a 2×7 concentration matrix, or “anchored” approach. The inventors screened each anchor compound at two optimised concentrations and a discontinuous 1,000-fold (7-point) dose-response curve of the library compound. Viability was read out after 72 h of drug treatment using CellTiter-Glo and drug responses for single agent and combination responses were fitted.
The synergy and activity rate also subset to MSS (n=30) and MSI (n=15), or KRAS mut (n=24) and KRAS wt (n=21) cell lines.
Activity in MSI (n=15) and MSS (n=30) cell lines was compared (FIG. 1a). KRAS mutant (n=24) cell lines were investigated (n=8, TP53 wild type; n=16 TP53 mutant) (FIG. 1b). […] Plotted are averaged combination responses. Box and whisker plots show the median and interquartile range. A two-sided Welch's t-test was performed (*=p≤0.05, **=p≤0.01, ***=p≤0.001, ****=p≤0.0001).
Viability was read out after 72 h of drug treatment using CellTiter-Glo and drug responses for single agent and combination responses were fitted.

[2] = system: SW620, SW837, SNU-81 or LS-1034 cells; assay: CHEK specificity: camptothecin anchor plus CHEK inhibitor libraries, CellTiter-Glo viability after 96 h; type: cell-based; details: in combination with camptothecin (anchor, 0.025 µM), 4 cell lines
Procedure: After 96 h of drug treatment viability was measured with CellTiter-Glo® 2.0 (CTG; Promega). Drug response curves were fitted and combination response metrics ΔEmax and ΔIC50 calculated by comparing the observed combination response with the expected (Bliss) combination response. The higher the ΔEmax and ΔIC50, the stronger the combination response. SW620, SW837, SNU-81 and LS-1034 are all MSS and KRAS-TP53 double mutant colon cancer cell lines.

CHEK1 = target: T1, CHEK1 (Homo sapiens, UniProt O14757); details: assay format not stated; read-out: IC50 (CHEK1 inhibitor); cited from earlier work
T1 sequence (O14757 1-476): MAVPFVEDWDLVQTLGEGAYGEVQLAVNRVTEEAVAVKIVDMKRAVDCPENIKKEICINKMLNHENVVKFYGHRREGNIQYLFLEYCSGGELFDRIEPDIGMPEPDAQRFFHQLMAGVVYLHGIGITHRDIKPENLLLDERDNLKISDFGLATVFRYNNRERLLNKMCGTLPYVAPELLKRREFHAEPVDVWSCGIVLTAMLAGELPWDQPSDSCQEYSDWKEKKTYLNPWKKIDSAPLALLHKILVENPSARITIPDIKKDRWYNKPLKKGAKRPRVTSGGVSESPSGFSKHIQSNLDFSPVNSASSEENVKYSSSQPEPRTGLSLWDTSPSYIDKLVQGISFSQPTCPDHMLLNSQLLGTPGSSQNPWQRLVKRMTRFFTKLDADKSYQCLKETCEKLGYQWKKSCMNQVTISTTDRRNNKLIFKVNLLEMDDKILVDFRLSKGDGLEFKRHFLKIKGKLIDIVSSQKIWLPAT

HT-29 cells = details: cited from earlier work
LoVo cells = details: cited from earlier work
[3] = system: colon cancer cell lines (CL-11, SNU-81 and SW837); assay: 7x7 matrix combination screen with SN-38, CellTiter-Glo 72 h, Bliss window and HSA window; type: cell-based; details: MSS and KRAS/TP53 double mutant cell lines
Procedure: Viability was measured after 72 h of drug treatment using CellTiter-Glo reagent. Single-agent and combination viability measurements were fitted per cell line and multiple parameters derived including single agent values and a range of synergy scores. […] The “Bliss window” was reported as the highest mean Bliss excess value measured across the 25 possible 3×3 submatrices, or ‘windows’, across the 7×7 dose matrix. […] The “HSA window” was reported as the highest mean HSA excess value measured across the 25 possible 3×3 submatrices, or ‘windows’, across the 7×7 dose matrix.

SNU-81 cells = assay: SN-38 dose response after siRNA transfection, viability (CTG); type: cell-based; details: for IC50: SN-38 added after 30 h, viability 72 h later
Procedure: (§1) For siRNA experiments, SW837 and SNU-81 cells (8,000 and 16,000 cells per well, respectively) were reverse transfected with siRNAs of a non-targeting pool as negative control (siNT; Dharmacon, D-001810-10-5), polo-like kinase 1 (PLK1) pool as positive control (Dharmacon, L-003290-00-0010), CHEK1 pool (Dharmacon, L-003255-00-0005) or four individual CHEK1 siRNAs (LQ-003255-00-0005), and CHEK2 pool (Dharmacon, L-003256-00-0005) using lipofectamine RNAiMax (Thermofisher). After 30 h, 0.025 µM or a dose range of 0.001-9 µM SN-38 or DMSO were added and viability was measured 72 h later with CTG. Signal was normalised to siNT+DMSO controls. […] FIGS. 4a and 4c confirm that the effect of the TOP1+CHEK combination is primarily mediated through inhibition of CHEK1.
(§2) SW837 and SNU-81 cells (8,000 and 16,000 cells per well, respectively) were reverse transfected with siRNAs of a non-targeting pool as negative control (siNT; Dharmacon, D-001810-10-5), CHEK1 pool (Dharmacon, L-003255-00-0005) or CHEK2 pool (Dharmacon, L-003256-00-0005) using lipofectamine RNAiMax (Thermofisher). After 30 h, a dose range of 0.001-9 µM SN-38 or DMSO were added and viability was measured 72 h later with CTG. Signal was normalised to siNT+DMSO controls. Mean±SD of three independent replicates.

SW837 cells = assay: as above; type: cell-based; details: for IC50: SN-38 added after 30 h, viability 72 h later
Procedure: as §1, §2

[4] = system: ATR-driven phosphorylated CHEK1 (P-CHEK1) phosphorylation; details: cell-free assay; cited from earlier work
[5] = target: ataxia telangiectasia and Rad3 related (ATR) kinase (Homo sapiens, UniProt Q13535); details: cited from earlier work
Sequence of ataxia telangiectasia and Rad3 related (ATR) kinase (Q13535 whole entry): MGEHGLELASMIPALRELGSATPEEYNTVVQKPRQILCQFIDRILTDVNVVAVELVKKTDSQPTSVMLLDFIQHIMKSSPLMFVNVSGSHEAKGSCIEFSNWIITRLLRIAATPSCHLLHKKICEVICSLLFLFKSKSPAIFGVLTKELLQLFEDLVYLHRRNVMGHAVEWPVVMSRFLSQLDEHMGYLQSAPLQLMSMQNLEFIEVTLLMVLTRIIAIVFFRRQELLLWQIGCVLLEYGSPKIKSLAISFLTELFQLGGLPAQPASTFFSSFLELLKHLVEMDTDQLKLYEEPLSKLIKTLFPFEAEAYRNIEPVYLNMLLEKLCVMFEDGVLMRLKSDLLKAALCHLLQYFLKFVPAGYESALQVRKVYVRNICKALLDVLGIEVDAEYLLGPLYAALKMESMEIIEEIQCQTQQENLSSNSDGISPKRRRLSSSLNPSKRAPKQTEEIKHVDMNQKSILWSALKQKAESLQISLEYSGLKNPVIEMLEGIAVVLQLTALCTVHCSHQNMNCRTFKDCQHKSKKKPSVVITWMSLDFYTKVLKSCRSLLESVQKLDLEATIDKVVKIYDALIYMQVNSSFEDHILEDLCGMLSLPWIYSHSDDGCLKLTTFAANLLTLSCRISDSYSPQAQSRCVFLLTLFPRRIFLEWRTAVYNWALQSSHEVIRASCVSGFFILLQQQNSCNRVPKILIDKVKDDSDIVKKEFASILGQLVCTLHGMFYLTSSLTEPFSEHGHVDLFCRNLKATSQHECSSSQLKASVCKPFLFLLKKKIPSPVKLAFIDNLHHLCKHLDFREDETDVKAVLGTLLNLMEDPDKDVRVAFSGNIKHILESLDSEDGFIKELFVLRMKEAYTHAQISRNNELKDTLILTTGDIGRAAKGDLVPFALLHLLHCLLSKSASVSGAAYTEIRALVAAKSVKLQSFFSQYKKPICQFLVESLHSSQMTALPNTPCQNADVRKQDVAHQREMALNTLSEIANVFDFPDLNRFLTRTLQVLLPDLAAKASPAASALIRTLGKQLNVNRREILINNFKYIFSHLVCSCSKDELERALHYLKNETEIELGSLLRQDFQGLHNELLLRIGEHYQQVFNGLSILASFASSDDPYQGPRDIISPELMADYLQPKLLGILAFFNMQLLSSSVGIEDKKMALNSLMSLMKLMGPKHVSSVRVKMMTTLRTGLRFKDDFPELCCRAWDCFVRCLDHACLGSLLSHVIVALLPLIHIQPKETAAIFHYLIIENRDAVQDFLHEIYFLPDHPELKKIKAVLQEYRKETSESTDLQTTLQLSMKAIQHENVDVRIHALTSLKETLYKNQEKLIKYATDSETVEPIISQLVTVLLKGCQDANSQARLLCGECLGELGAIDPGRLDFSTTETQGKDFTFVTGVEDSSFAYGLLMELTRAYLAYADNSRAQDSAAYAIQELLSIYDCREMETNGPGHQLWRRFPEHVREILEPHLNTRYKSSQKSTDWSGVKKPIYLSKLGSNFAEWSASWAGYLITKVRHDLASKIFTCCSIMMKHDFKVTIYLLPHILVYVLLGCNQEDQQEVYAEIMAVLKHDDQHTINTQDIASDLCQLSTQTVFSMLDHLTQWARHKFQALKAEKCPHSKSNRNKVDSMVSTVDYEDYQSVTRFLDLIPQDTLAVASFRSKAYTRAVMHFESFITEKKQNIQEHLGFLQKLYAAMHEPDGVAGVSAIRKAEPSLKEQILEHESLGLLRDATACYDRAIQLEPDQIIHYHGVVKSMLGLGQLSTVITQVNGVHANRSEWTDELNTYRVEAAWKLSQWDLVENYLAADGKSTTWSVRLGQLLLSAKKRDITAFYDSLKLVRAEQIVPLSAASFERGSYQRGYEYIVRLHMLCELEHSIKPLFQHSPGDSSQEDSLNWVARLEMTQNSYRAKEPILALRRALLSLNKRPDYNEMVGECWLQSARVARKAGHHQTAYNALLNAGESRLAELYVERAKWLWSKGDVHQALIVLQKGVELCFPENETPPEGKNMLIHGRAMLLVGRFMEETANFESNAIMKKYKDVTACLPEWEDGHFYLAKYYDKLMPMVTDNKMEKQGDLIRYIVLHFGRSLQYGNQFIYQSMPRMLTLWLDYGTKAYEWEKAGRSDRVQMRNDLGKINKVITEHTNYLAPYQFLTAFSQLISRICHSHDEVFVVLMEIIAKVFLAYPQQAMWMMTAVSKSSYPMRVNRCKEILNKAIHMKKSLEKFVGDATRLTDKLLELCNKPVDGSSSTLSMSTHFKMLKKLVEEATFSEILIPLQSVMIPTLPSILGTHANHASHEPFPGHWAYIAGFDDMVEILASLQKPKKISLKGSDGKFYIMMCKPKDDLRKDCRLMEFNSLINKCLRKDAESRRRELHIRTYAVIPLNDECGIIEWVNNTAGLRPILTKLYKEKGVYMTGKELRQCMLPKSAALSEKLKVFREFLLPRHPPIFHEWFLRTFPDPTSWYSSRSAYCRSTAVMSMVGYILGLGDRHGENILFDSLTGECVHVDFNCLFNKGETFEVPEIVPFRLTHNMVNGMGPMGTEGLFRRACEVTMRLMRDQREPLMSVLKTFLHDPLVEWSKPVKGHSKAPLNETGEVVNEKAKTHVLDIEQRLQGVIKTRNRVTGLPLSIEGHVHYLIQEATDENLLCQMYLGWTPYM
Sequence of ataxia telangiectasia and Rad3 related (ATR) kinase (Q8WXE1 whole entry partner): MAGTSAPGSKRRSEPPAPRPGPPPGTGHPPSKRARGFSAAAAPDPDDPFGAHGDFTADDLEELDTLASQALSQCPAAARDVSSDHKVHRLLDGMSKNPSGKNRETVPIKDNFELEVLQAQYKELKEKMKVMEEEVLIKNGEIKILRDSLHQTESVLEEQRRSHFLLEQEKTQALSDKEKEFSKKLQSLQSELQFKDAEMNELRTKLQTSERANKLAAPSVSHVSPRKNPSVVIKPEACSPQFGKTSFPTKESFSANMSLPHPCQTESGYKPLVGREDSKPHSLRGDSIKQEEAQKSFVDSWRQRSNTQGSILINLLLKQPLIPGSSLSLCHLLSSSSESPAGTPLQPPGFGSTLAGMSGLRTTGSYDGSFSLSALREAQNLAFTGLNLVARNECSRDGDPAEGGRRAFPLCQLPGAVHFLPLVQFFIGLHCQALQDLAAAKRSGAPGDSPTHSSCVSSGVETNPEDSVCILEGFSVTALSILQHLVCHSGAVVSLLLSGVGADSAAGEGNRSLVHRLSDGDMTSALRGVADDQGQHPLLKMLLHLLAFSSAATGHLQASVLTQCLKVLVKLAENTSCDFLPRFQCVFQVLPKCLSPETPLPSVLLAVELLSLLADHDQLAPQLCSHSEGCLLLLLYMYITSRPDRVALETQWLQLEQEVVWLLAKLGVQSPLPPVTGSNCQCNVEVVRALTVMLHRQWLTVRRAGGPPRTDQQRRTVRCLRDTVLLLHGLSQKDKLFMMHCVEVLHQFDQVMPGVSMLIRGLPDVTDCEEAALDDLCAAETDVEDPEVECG

[6] = Phase 1 clinical trials; cited from earlier work

Compound: NC(=O)Nc1cc(-c2cccc(F)c2)sc1C(=O)N[C@H]1CCCNC1 [AZD7762, (S)-5-(3-Fluorophenyl)-N-(piperidin-3-yl)-3-ureidothiophene-2-carboxamide]
synergy and activity rate in combination with 5-FU (DNA antimetab.) ([1]; AZD7762 = Anchor): 26%
synergy and activity rate in combination with Oxaliplatin (DNA alkyl.) ([1]; AZD7762 = Anchor): 0%
synergy and activity rate in combination with Vinorelbine (Microtub.) ([1]; AZD7762 = Anchor): 0%
synergy and activity rate in combination with 5-FU (DNA antimetab.) ([1]; AZD7762 = Library): 28%
synergy and activity rate in combination with Oxaliplatin (DNA alkyl.) ([1]; AZD7762 = Library): 2%
synergy and activity rate in combination with Vinorelbine (Microtub.) ([1]; AZD7762 = Library): 4%

Compound: COc1cc2nc(-c3cc(F)ccc3O)nc(N[C@@H]3CNC[C@H]3C(C)(C)O)c2cc1OC [CCT241533]
median ΔEmax (shift in efficacy over Bliss) [2]: did not

Compound: N[C@@H]1CCCN(c2c(Br)cnc3[nH]cc(NC(=O)C4CC4)c23)C1 [GDC-0575, N-[4-[(3R)-3-amino-1-piperidyl]-5-bromo-1H-pyrrolo[2,3-b]pyridin-3-yl]cyclopropanecarboxamide]
IC50 (CHEK1): 1.2 nM

Compound: CCc1c2c(nc3ccc(OC(=O)N4CCC(N5CCCCC5)CC4)cc13)-c1cc3c(c(=O)n1C2)COC(=O)[C@]3(O)CC [Irinotecan, [(19S)-10,19-diethyl-19-hydroxy-14,18-dioxo-17-oxa-3,13-diazapentacyclo[11.8.0.0^2.11.0^4.9.0^15,20]henicosa-1 (21),2,4(9),5,7,10,15(20)-heptaen-7-yl] 4-(1-piperidyl) piperidine-1-carboxylate]
IC50 (HT-29 cells): 5170 nM
IC50 (LoVo cells): 15800 nM

Compound: Cn1cc(-c2cnn3c(N)c(Br)c([C@@H]4CCCNC4)nc23)cn1 [MK-8776, 6-bromo-3-(1-methyl-1H-pyrazol-4-yl)-5-[(3R)-piperidin-3-yl]pyrazolo[1,5-a]pyrimidin-7-amine]
synergy (Bliss window and HSA window) in combination with SN-38 [3]: high

Compound: COc1cccc(OCCCN)c1-c1cc(Nc2cnc(C#N)cn2)n[nH]1 [Prexasertib, 5-[[5-[2-(3-aminopropoxy)-6-methoxyphenyl]-1H-pyrazol-3-yl]amino]pyrazine-2-carbonitrile]
synergy (Bliss window and HSA window) in combination with SN-38 [3]: high

Compound: C[C@H](CN(C)C)Oc1nc(Nc2cc3cccc(Cl)c3cn2)cnc1C#N [SAR-020106, 5-(8-chloroisoquinolin-3-ylamino)-3-((R)-1-(dimethylamino)propan-2-yloxy) pyrazine-2-carbonitrile]
synergy (Bliss window and HSA window) in combination with SN-38 [3]: high

IC50 (SNU-81 cells; CHEK1 siRNA pool, read-out: IC50 in SNU-81, siCHEK1): 84.4 nM and 84 nM
IC50 (SNU-81 cells; CHEK2 siRNA pool, read-out: IC50 in SNU-81, siCHEK2): 715 nM
shift in IC50 of SN-38 on addition of siCHEK1 (SNU-81 cells; SNU-81, siCHEK1 vs siNT): 7.2 fold
IC50 (SNU-81 cells; non-targeting siRNA pool, read-out: IC50 in SNU-81, siNT): 611 nM
IC50 (SW837 cells; CHEK1 siRNA pool, read-out: IC50 in SW837, siCHEK1): 0.7 nM
IC50 (SW837 cells; CHEK2 siRNA pool, read-out: IC50 in SW837, siCHEK2): 67 nM
IC50 (SW837 cells; Homo sapiens, SW837, CHEK1 siRNA pool, read-out: IC50 in SW837, siCHEK1): 0.69 nM
IC50 (SW837 cells; Homo sapiens, SW837, CHEK2 siRNA pool, read-out: IC50 in SW837, siCHEK2): 66.6 nM
IC50 (SW837 cells; Homo sapiens, SW837, non-targeting siRNA pool, read-out: IC50 in SW837, siNT): 84.4 nM
shift in IC50 of SN-38 on addition of siCHEK1 (SW837 cells; SW837, siCHEK1 vs siNT): 120 fold
IC50 (SW837 cells; non-targeting siRNA pool, read-out: IC50 in SW837, siNT): 84 nM
Compound: CCc1c2c(nc3ccc(O)cc13)-c1cc3c(c(=O)n1C2)COC(=O)[C@]3(O)CC [SN-38, (19S)-10,19-diethyl-7,19-dihydroxy-17-oxa-3,13-diazapentacyclo[11.8.0.0^2.11.0^4.9.0^15,20]henicosa-1(21),2,4(9),5,7,10,15(20)-heptaene-14,18-dione]

Compound: Nc1nn2cc(F)cnc2c1C(=O)Nc1cncc(F)c1N1CCC(C(=O)N2CCN(C3COC3)CC2)CC1 [VX-803, 2-amino-6-fluoro-N-[5-fluoro-4-[4-[4-(oxetan-3-yl)piperazine-1-carbonyl]-1-piperidyl]-3-pyridyl]pyrazolo[1,5-a]pyrimidine-3-carboxamide]
IC50 [4]: 8 nM
Ki ATR kinase [5]: < 0.15 nM

Compound: Cc1cnc(NC(=O)Nc2cc(Br)c(C)cc2OC[C@@H]2CNCCO2)cn1 [rabusertib, 1-[5-bromo-4-methyl-2-[[(2S)-morpholin-2-yl]methoxy]phenyl]-3-(5-methylpyrazin-2-yl) urea]
synergy (Bliss window and HSA window) in combination with SN-38 [3]: high
safety profile [6]: acceptable safety profile
